Consider 1 compound from patent US20260335295A1, “PHARMACEUTICAL COMPOSITION COMPRISING HTRA ACTIVATOR AS ACTIVE INGREDIENT FOR PREVENTING OR TREATING DEGENERATIVE DISEASES, AND METHOD FOR SCREENING HTRA ACTIVITY MODULATOR” (THE ASAN FOUNDATION, priority 2023, published 2026).

Test [1] has as its system ARPE-19 retinal pigment epithelial cells. The experiment in a line: Immunostaining of ApoE and Cathepsin D in three-dimensional long-term culture macular degeneration cell model. It is filed as cell-based. The settings on record: ARPE-19, 4.5 months culture; vs control group; FIGS. 9A-C. The source says: (§1) In order to verify the preventive or therapeutic effect of compound E09 on age-related macular degeneration (AMD) under conditions similar to an in vivo environment, a macular degeneration cell model using a three-dimensional (3D) long-term culture system was established.
(§2) The model was designed to induce apical-basal polarization of ARPE-19 cells and to reproduce the structural and functional differentiation characteristics of retinal pigment epithelium (RPE), as well as pathological drusen accumulation patterns, through nicotinamide-based long-term culture.
(§3) Specifically, ARPE-19 retinal pigment epithelial cells were seeded at a density of 1.66× 10^5 cells/cm^2 and cultured for two weeks in a medium containing nicotinamide. Thereafter, the cells were re-seeded onto laminin-coated Transwell inserts.
(§4) Subsequently, the medium was replaced every 2-3 days with a medium containing E09 or an HtrA1 inhibitor, and the cells were differentiated for 4.5 months (untreated control group (ctrl), E09-treated group, and HtrA1 inhibitor-treated group).

The test system is the same in test [2]. Briefly: Cell barrier structure by ZO-1 and clusterin staining in three-dimensional long-term culture macular degeneration cell model. It counts as cell-based. The settings on record: ARPE-19, 4.5 months culture; FIGS. 9D-F.
Excerpt: as §1, §2, §3, §4

For test [3] the test system is unchanged. The experiment in a line: Cobblestone structure by clusterin and ZO-1 staining in NaIO3-induced dry macular degeneration cell model. It is filed as cell-based. The settings on record: pretreated 24 hours, co-treated with NaIO3 12 hours. The protocol: (§5) In order to confirm the preventive or therapeutic effect of compound E09 on age-related macular degeneration (AMD), a dry age-related macular degeneration (AMD)-like cell model induced by treatment with NaIO3 was established.
as §3
(§6) After culture for one month in a medium containing nicotinamide, the cells were treated with NaIO3 for 12 hours to induce cell injury (NaIO3-alone treatment group), wherein NaIO3 is commonly used for inducing dry age-related macular degeneration (AMD). Structural changes in the cells were then evaluated by analyzing clusterin and ZO-1. E09 and the HtrA1 inhibitor were dissolved in dimethyl sulfoxide (DMSO) and used for the experiments.
(§7) In order to evaluate the effect of E09 on NaIO3-induced cell injury, E09 was pretreated 24 hours prior to NaIO3 treatment and subsequently co-treated with NaIO3 for 12 hours (E09-treated group).
In addition, under the same conditions, NaIO3 and an HtrA1 inhibitor were administered, and a TUNEL assay was performed to evaluate cytotoxicity.

For test [4] the test system is unchanged. Briefly: Holotomography analysis in three-dimensional long-term culture macular degeneration cell model. It is filed as cell-based. The settings on record: ARPE-19, 4.5 months culture; FIGS. 9J-L.
Excerpt: as §1, §2, §3, §4

Test [5] concerns the target T1, HTRA1 (Homo sapiens, UniProt Q92743). The experiment in a line: HTRA1 activity in HeLa cells with HTRA1 activity-based probe DS-1-94, fluorescence microscopy. It is filed as cell-based. The settings on record: E09 10 μM, DS-1-94 5 μM, 37 °C, 1 hour, FIG. 4. The protocol:
To confirm whether HTRA1 activity increases even when cells are treated with E09, HTRA1 activity according to the presence or absence of E09 was identified by treating Hela cells, which are human adenocarcinoma cells, with an HTRA1 activity-based probe (DS-1-94, final concentration of 5 μM) and E09 (HTRA activator, final concentration of 10 μM).
Specifically, the cells treated with the HIRAI activity-based probe (DS-1-94) and E09 (HTRA activator) were maintained in a 37 °C incubator for 1 hour.

Test [6] has as its system ARPE-19 retinal pigment epithelial cells. The experiment in a line: Microvilli formation in three-dimensional long-term culture macular degeneration cell model. It is filed as cell-based. The settings on record: ARPE-19, 4.5 months culture; FIGS. 9G-I.
Excerpt: as §1, §2, §3, §4

Test [7] concerns gene sets (transcriptome). Briefly: Transcriptome analysis (GSEA) in a pathological model of macular degeneration (AMD). The settings on record: vs control group, FIG. 12 upper left. How it is done:
The collected transcriptome data were analyzed at the gene set level using Gene Set Enrichment Analysis (GSEA).
FIG. 12 is a graph showing the results of GSEA (Gene Set Enrichment Analysis) performed after transcriptome analysis following treatment with Compound E09 or an HTRA1 inhibitor in a pathological model of macular degeneration (AMD).

The target of the next test is T2, HTRA2 (Homo sapiens, UniProt O43464).
T2 sequence (O43464 134-458): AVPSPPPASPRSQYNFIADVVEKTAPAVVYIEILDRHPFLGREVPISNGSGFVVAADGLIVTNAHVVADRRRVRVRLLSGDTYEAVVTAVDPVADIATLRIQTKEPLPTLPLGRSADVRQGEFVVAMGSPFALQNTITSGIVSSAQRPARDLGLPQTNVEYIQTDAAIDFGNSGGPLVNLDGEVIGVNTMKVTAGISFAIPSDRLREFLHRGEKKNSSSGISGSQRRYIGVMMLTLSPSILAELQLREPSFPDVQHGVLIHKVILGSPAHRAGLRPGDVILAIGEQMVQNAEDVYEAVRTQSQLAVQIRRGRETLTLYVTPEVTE
The experiment in a line: HTRA2 activity assay with fluorogenic substrate H2-Opt. It counts as biochemical. The protocol: (§8) HTRA activity was identified through high-throughput screening using H2-Opt, a commercially available fluorogenic substrate.
(§9) Specifically, purified recombinant HTRA1 protein (50 ng) and a compound (final concentration of 10 μM) were added to 80 μL of an assay buffer in each well of a 96-well plate and were allowed to stand at room temperature for 30 minutes. Immediately after 20 μL of an H2-OPT solution (final concentration of 6.25 μM) was added thereto and mixed, fluorescence signals generated therefrom were measured using an MS microplate reader device manufactured by Molecular Devices. Upon measurement of the fluorescence signals in kinetic mode, excitation and emission were set to 328 nm and 393 nm, respectively, and changes in the fluorescence signals were measured at 37 °C for 3 hours at intervals of 30 seconds.
(§10) Specifically, different concentrations of E09 (0.01, 0.1, 1, 10, and 100 (M) w ere added to purified recombinant HTRA1 and HTRA2, and activities of HTRA1 and HTRA2 were measured in the same manner as the high-throughput screening of Example 1. Fluorescence signals at the end of measurement (3 hours) were measured for each concentration. Graphs obtained by measuring the fluorescence signals of HTRA1 and HTRA2 are shown in FIGS. 2 and 3.

Test [8] deals with T1, HTRA1. The experiment in a line: HTRA1 activity assay with fluorogenic substrate H2-Opt (high-throughput screening). It is filed as biochemical. The protocol: as §8, §9, §10
In test [9] the target is T1, HTRA1. The experiment in a line: HTRA1 activation in human blood samples. The settings on record: no method given.
Test [10] has as its system NaIO3-induced mouse macular degeneration model (retina). Briefly: NaIO3-induced mouse macular degeneration model, H&E staining and thickness of retina. The settings on record: intravitreal injection on Day −1, NaIO3 IV day 0, eyes five days after NaIO3. It counts as in vivo, C57BL/GJ mice. The protocol:
Specifically, C57BL/GJ mice (6 weeks old) were acclimated for one week, and on experimental day 0, NaIO3 was administered via intravenous injection (IV) to induce retinal injury. To evaluate drug efficacy, E09 or an HtrA1 inhibitor was pre-administered by intravitreal injection one day prior to NaIO3 administration (Day −1).
Five days after administration of NaIO3, the eyes were enucleated, and the tissues. were fixed and sectioned. Hematoxylin & Eosin (H&E) staining was then performed to observe morphological changes in the retina.
In particular, the structural preservation status and thickness changes of the retinal pigment epithelium (RPE) layer, photoreceptor outer segments (POS), and the outer nuclear layer (ONL) were primarily analyzed.

Test [11] concerns the target T1, HTRA1. The experiment in a line: HTRA1 enzyme activity on addition of casein, PDZ-opt (GQYYFV) or E09. It is filed as biochemical. The settings on record: 10 μM E09 vs 2 μg β-casein or PDZ-opt; 15 minutes at room temperature, measured at 37 °C 3 hours; FIG. 5. How it is done: HTRA activity was measured utilizing E09 and the HTRA activity-based probes synthesized by the method of Example 4.1. Changes in HTRA activity w ere measured for cases in which casein, known as a substrate of an HTRA enzyme, or PDZ-opt (GQYYFV), known as a peptide that activates an HTRA enzyme, was added and a case in which E09 was added.
Specifically, 2 μg of β-casein or PDZ-opt (GQYYFV) or 10 μM of E09 was added to an HTRA1 enzyme by the method of Example 1, the mixture was allowed to stand at room temperature for 15 minutes, and then HTRA1 activity was measured at 37 °C for 3 hours in the same manner as in Example 1, and the results are shown in FIG. 5.

Test [12] concerns ARPE-19 retinal pigment epithelial cells. The experiment in a line: Cell death by TUNEL assay in NaIO3-induced dry macular degeneration cell model. It counts as cell-based. The settings on record: pretreated 24 hours, co-treated with NaIO3 12 hours, FIG. 7E-H. How it is done: as §5, §3, §6, §7
In addition, under the same conditions, NaIO3 and an HtrA1 inhibitor were administered, and a TUNEL assay was performed to evaluate cytotoxicity. […]

The structures appear in SMILES notation.

T1 sequence (Q92743 23-480): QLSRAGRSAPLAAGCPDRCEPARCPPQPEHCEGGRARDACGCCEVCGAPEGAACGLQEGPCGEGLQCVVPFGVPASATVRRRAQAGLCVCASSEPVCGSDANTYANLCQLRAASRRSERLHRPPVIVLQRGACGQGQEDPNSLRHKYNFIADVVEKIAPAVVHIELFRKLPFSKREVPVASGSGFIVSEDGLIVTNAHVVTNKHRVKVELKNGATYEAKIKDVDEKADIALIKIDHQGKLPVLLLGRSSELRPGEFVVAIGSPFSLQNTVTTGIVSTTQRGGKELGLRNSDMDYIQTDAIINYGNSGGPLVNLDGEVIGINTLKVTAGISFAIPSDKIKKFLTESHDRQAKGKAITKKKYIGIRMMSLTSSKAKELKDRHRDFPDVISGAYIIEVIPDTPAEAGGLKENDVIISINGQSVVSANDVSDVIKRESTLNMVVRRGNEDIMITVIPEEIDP

As for `COC(=O)C1CCC(NC(=O)c2ccc(-c3nc(C)cs3)cc2)(C(=O)OC)CC1` (centres unmarked) [Compound E09, dimethyl 1-(4-(4-methylthiazol-2-yl)benzamido)cyclohexane-1,4-dicarboxylate], in test [1], the “expression / accumulation of ApoE (drusen marker)” value is given as “expression levels of these markers tended to decrease compared with the control group” and the “expression / accumulation of cathepsin D (drusen marker)” value is “expression levels of these markers tended to decrease compared with the control group”. Besides, the “ZO-1 and clusterin staining pattern (epithelial barrier)” value in test [2] was “maintained a continuous and regular staining pattern along the cell boundaries, indicating formation of a robust epithelial barrier structure”. For the same compound, the “structural damage induced by NaIO3 / cobblestone structure” value in test [3] (FIG. 7A-D) was “structural damage induced by NaIO3 was significantly suppressed”. Also, the “monolayer structure of the cells” value in [3] (FIG. 7C) was “the monolayer structure of the cells was preserved”. For the same compound, the “cytoskeletal structure (holotomography)” value in [4] was “a stable cytoskeletal structure was maintained”. In addition, the “fluorescence signal of HTRA1 probe (HTRA1 activity)” value on HTRA1 [5] is given as “fluorescence signal markedly increased”. Also, in [6], the microvilli formation entry is on record as “increased microvilli development”. The “expression of gene sets associated with retinal vascular lesions (retinal telangiectasia and vascular tortuosity)” value in test [7] was “overall tendency toward decreased expression”. In addition, at HTRA2 (0.01, 0.1, 1, 10, and 100 (M) as printed, signal at 3 hours, FIG. 3), the “dose dependency of HTRA2 activity” value was “activates HTRA1 and HTRA2 in a dose-dependent manner”. For the same compound, on HTRA2 (Example 1, in words), the “activation ability in HTRA2 (both HTRA1 and HTRA2)” value is “excellent activation ability in both HTRA1 and HTRA2”. In addition, the “dose dependency of HTRA1 activity” value at HTRA1 [8] (0.01, 0.1, 1, 10, and 100 (M) as printed, signal at 3 hours, FIG. 2) was “activates HTRA1 and HTRA2 in a dose-dependent manner”. Further, the “activation ability in HTRA1 (both HTRA1 and HTRA2)” value at HTRA1 [8] (Example 1, in words) is “excellent activation ability in both HTRA1 and HTRA2”. The HTRA1 activation entry at HTRA1 [8] (screening, final concentration of 10 μM, H2-OPT 6.25 μM, 37 °C, 3 hours, FIG. 1) is reported as “significantly activate HTRA1”. In addition, the “HTRA1 activation in human blood samples” value on HTRA1 [9] is “also activates HTRA1 in human blood samples”. Also, in test [10] (FIG. 11A), the “tissue continuity (H&E)” value is listed as “tissue continuity was well maintained”. Moreover, in test [10] (FIG. 11B), the ONL thickness entry was “significantly suppressed NaIO3-induced thinning and protected retinal structure”. Further, the “separation of the retinal (RPE-POS) layers (H&E)” value in test [10] (vs DMSO control, FIG. 11A) is “separation of the retinal layers was markedly suppressed”. Also, the “HTRA1 activation compared with casein or PDZ-opt (GQYYFV)” value on HTRA1 [11] is “activates the HTRA1 enzyme at room temperature far more significantly than casein or PDZ-opt (GQYYFV)”. The “NaIO3-induced cell death (TUNEL assay)” value in [12] is listed as “NaIO3-induced cell death was significantly suppressed”.
